Entries after “also recorded” stand apart in the source; their conditions may differ. Like-named read-outs stand apart in the source and are kept apart here.
How the values were obtained:
[1] = system: connective/stromal microtissues (Wi38); experiment: Tox testing on connective/stromal microtissues; assay type: cell-based, human; settings: dosed 2× for 8h with an 8h gap (FIG. 13A, C)
Experimental: (§1) FIG. 13 exemplifies tox testing of single drugs using connective/stromal microtissues (Wi38) and efficacy testing on non-small cell tumor microtissues (A549; Wi38). Vinorelbin and Docetaxel, both disrupting microtubule, were dosed 2× for 8h with an 8h gap.

[2] = system: NSCLC microtumors (A549 NSCLC cells with human lung fibroblasts Wi38); experiment: Non-small cell lung cancer (NSCLC) microtumor size/growth assay; assay type: cell-based; settings: for efficacy: impact on tumor growth: Vinorelbin high concentration vs low and high concentrated Docetaxel, dosed 2× for 8h with an 8h gap (FIG. 13B, D); for effect on NSCLC microtumor growth: dosed 2× for 8h with 48h gap (FIG. 6, FIG. 11); for Response: 14 days window
Experimental: The NSCLC model was produced by mixing A549 NSCLC cells (ATCC® CCL-18S™) with human lung fibroblasts (Wi38, ATCC® CCL-7S™) in a non-adhesive 96-well plate (GravityTRAP™). Drugs were dosed 2× for 8h with 48h gap.
Single and drug combinations were dosed 2× for 8h with a gap of 48h and growth monitored over time.
as §1

[3] = system: microtumors from NSCLC cells directly derived from patients (NSCLC resection); experiment: Patient-derived NSCLC microtumor growth assay; assay type: cell-based, human; settings: dosed 2× for 8h with a 48h gap (FIG. 12)
Experimental: A NSCLC resection was dissociated, and the cell Suspension used to produce microtumors in a multi-well format (FIG. 12A). Drugs were dosed 2× for 8h with a 48h gap.

[4] = system: pancreatic microtumors from pancreatic cancer cell line Panc-1 in co-culture with mouse fibroblast cell line NIH3T3; experiment: Pancreatic microtumor (3D microtissue) size/growth assay; settings: for effect on pancreatic microtumor growth: dosed for 8h with a 48h gap (FIG. 5); for Response: 14 days window; for ΔT14/ΔC14: day 14
Experimental: Both cells were expanded in cell culture flasks using Dulbecco's modification of Eagle medium (DMEM) supplemented with 10% fetal calf serum. After reaching confluency the were removed from the cell culture flask enzymatic digestion (Trypsin). Cell numbers of both cell types were assessed using a Neubauer chamber, and the respective cell number mixed to produce the co-culture microtumors. Seventy ul of the cell mixture was inoculated in each well of a non-adhesive 96-well plates (GravityTRAP™) using Dulbecco's modification of Eagle medium (DMEM) supplemented with 10% horse serum. Pancreatic microtumors were matured in a mammalian cell culture incubator at 37° C. with 5% CO2. […] After 48 hours the drug was removed by changing the culture medium with drug-free medium. The size of the pancreatic microtumors was monitored prior dosing and continuously after dosing using bright field microscopy. Growth is presented relative to the size of the pancreatic tumor microtissue prior compound treatment t0 (adapted from the RECIST criteria).
All drugs used were dissolved according to the manufactures protocol.

[5] = reference cmax used for potency; cited from earlier work

CCC1=C[C@@H]2CN(C1)Cc1c([nH]c3ccccc13)[C@@](C(=O)OC)(c1cc3c(cc1OC)N(C)[C@H]1[C@@](O)(C(=O)OC)[C@H](OC(C)=O)[C@]4(CC)C=CCN5CC[C@]31[C@@H]54)C2 [Vinorelbin]
cytotoxicity on stromal microtissues compared to untreated control ([1]; high dose 0.68 ug/ml): elevated cytotoxicity | efficacy: impact on tumor growth [2]: less impact on tumor growth

O=C1CCC(N2C(=O)c3ccccc3C2=O)C(=O)N1 (stereo not drawn) [Thalidomide]
impact on tumor growth, single doses [3]: hardly an impact on tumor growth | effect on NSCLC microtumor growth [2]: no significant impact on tumor growth remission

CC(=O)O[C@@]12CO[C@@H]1C[C@H](O)[C@@]1(C)C(=O)[C@H](O)C3=C(C)[C@@H](OC(=O)[C@H](O)[C@@H](NC(=O)OC(C)(C)C)c4ccccc4)C[C@@](O)([C@@H](OC(=O)c4ccccc4)[C@H]21)C3(C)C [Docetaxel]
cytotoxicity on stromal microtissues compared to untreated control ([1]; 4.05 ug/ml): less toxicity | effect on pancreatic microtumor growth [4]: much slower | sustainability of response ([4]; dosed for 8h with a 48h gap, compared with Gemcitabine (FIG. 5A)): more sustainable | efficacy: impact on tumor growth [2]: higher efficacy

Nc1ccn([C@@H]2O[C@H](CO)[C@@H](O)C2(F)F)c(=O)n1 [Gemcitabine]
median cmax [5]: (median cmax = 20 ug/ml) | Time to MR (TMR) ([4]; Gemcitabine 0.1 ug/ml): 10 days | Time until relapse (TR) ([4]; Gemcitabine 0.1 ug/ml): 10 days | Response ([4]; Gemcitabine 0.1 ug/ml): SR (+/−20% increase/decrease in size) | ΔT14/ΔC14 ([4]; Gemcitabine 0.1 ug/ml, treatment effect to untreated control): −0.25 | Time to MR (TMR) ([4]; Gemcitabine 0.5 ug/ml): 10 days | Time until relapse (TR) ([4]; Gemcitabine 0.5 ug/ml): 10 days | Response ([4]; Gemcitabine 0.5 ug/ml): SR (+/−20% increase/decrease in size) | ΔT14/ΔC14 ([4]; Gemcitabine 0.5 ug/ml): −0.23 | effect on pancreatic microtumor growth [4]: unfolds its effect quickly | day after which treated microtumors relapsed ([4]; dosed for 8h with a 48h gap (FIG. 5A)): > 10 days | Time to MR (TMR) ([2]; Gemcitabine 0.1 ug/ml): 14 days | Response ([2]; Gemcitabine 0.1 ug/ml): RE (≥20% decrease in microtumor size) | ΔT14/ΔC14 ([2]; Gemcitabine 0.1 ug/ml, day 14): −2.72 | Time to MR (TMR) ([2]; Gemcitabine 0.3 ug/ml): 14 days | Response ([2]; Gemcitabine 0.3 ug/ml): RE (≥20% decrease in microtumor size) | ΔT14/ΔC14 ([2]; Gemcitabine 0.3 ug/ml, day 14): −4.04 | Time to MR (TMR) ([2]; Gemcitabine 0.5 ug/ml): 14 days | Response ([2]; Gemcitabine 0.5 ug/ml): RE (≥20% decrease in microtumor size) | ΔT14/ΔC14 ([2]; Gemcitabine 0.5 ug/ml, day 14): −3.87

CCc1c2c(nc3ccc(OC(=O)N4CCC(N5CCCCC5)CC4)cc13)-c1cc3c(c(=O)n1C2)COC(=O)[C@]3(O)CC [Irinotecan]
median cmax [5]: (median cmax = 5 ug/ml) | Response ([4]; Irinotecan 0.675 ug/ml): PR (≥20%-100% increase in microtumor size) | ΔT14/ΔC14 ([4]; Irinotecan 0.675 ug/ml): 1.04 | Time to MR (TMR) ([4]; Irinotecan 6.75 ug/ml): 7 days | Time until relapse (TR) ([4]; Irinotecan 6.75 ug/ml): 7 days | Response ([4]; Irinotecan 6.75 ug/ml): SR (+/−20% increase/decrease in size) | ΔT14/ΔC14 ([4]; Irinotecan 6.75 ug/ml): 0.06 | Time to MR (TMR) ([4]; Irinotecan 67.5 ug/ml): 14 days | Response ([4]; Irinotecan 67.5 ug/ml): RE (≥20% decrease in microtumor size) | ΔT14/ΔC14 ([4]; Irinotecan 67.5 ug/ml): −0.36 | dose to growth correlation ([4]; indicated concentrations, drug removed after 48 hours, growth relative to size at t0 (FIG. 4)): clear correlation of dose to growth | ΔT14/ΔC14 [2]: −0.32 | Time to MR (TMR) ([2]; Irinotecan 6.75 ug/ml): 4 days | Time until relapse (TR) ([2]; Irinotecan 6.75 ug/ml): 5 days | ΔT14/ΔC14 ([2]; Irinotecan 6.75 ug/ml, day 14): −0.60 | Time to MR (TMR) ([2]; Irinotecan 27 ug/ml): 14 days | Response ([2]; Irinotecan 27 ug/ml): RE (≥20% decrease in microtumor size) | ΔT14/ΔC14 ([2]; Irinotecan 27 ug/ml, day 14): −3.09

Nc1nc2[nH]cc(CCc3ccc(C(=O)N[C@@H](CCC(=O)O)C(=O)O)cc3)c2c(=O)[nH]1 [Pemetrexed]
effect on pancreatic microtumor growth [4]: did not affect tumor growth; also recorded: not active | effect on NSCLC microtumor growth [2]: tumor remission

C#Cc1cccc(Nc2ncnc3cc(OCCOC)c(OCCOC)cc23)c1 [Erlotinib]
impact on tumor growth, single doses [3]: hardly an impact on tumor growth | effect on NSCLC microtumor growth [2]: reduced growth | time after which growth relapses ([2]; dosed 2× for 8h with a gap of 48h (FIG. 11)): > 7 days

From patent US20210396738A1, “3D HUMAN CANCER MODEL-BASED COMBINATORIAL DRUG DEVELOPMENT METHOD” (PreComb Therapeutics AG, priority 2018, published 2021)
